# Assay results reported in patent US20250170127A1, “RE-SENSITIZING MULTIDRUG-RESISTANT (MDR) GRAM-NEGATIVE BACTERIA TO COLISTIN USING IONOPHORES” (The Regents of the University of Colorado, a body corporate, priority 2022, published 2025).
# Several values for one entry are separate records, joined by “and”; a condition that tells them apart may be missing. Identical values can stand only once.
# Columns and labels:
# E. coli AR-0346 = experiment: Colistin MIC in the absence or presence of RMA compound; assay type: cell-based; conditions: E. coli AR-0346
# From the text: (§1) To investigate the scope of the colistin-potentiation effect of compound 3, the present inventors screened a panel of MDR Gram-negative bacteria obtained from the CDC and FDA Antibiotic Resistance Bank. These include a variety of Enterobacteriaceae spp., such as E. coli AR-0346 and AR-0538, K. pneumoniae AR-0497, Salmonella Enteritidis AR-0496, and Salmonella Typhimurium AR-0635. These strains all express the mcr genes (e.g., mcr-1, mcr-2, and mcr-4) and are resistant to colistin with its MICs of 8-16 μg/mL (Table 2). […] The only exception is Salmonella Typhimurium AR-0635, which expresses mcr-4 gene. […]. […]. Furthermore, the present inventors also tested the activity of colistin in the presence or absence of 1 μg/mL compound 3 in a wild-type E. coli K-12. […] The MICs of compound 3 in all these strains were >64 μg/mL, the highest concentration tested.
# (§2) General Methods. MDR strains E. coli AR-0493, AR-0346, and AR-0538, Salmonella Enteritidis AR-0496, Salmonella Typhimurium AR-0635, K. pneumoniae AR-0497, A. baumannii AR-0300 and AR-0310 were all obtained from the CDC & FDA Antibiotic Resistance Isolate Bank. E. coli K-12 was a gift from the Copley lab (Department of MCD Biology, University of Colorado Boulder). HeLa cells were purchased from the ATCC. All bacterial strains were grown on trypticase soy agar supplemented with 5% sheep blood (BAP). Bacteria were then cultured in Luria-Bertani (LB) medium at 35° C. until they achieve the log phase before screening or antimicrobial testing using CAMHB media. MIC, MRC, and checkerboard analyses and mammalian growth inhibition analyses in Hela cells were performed as described previously. More details are given in Supporting information.
# A. baumannii AR-0300 = experiment: as above; assay type: cell-based
# From the text: as §1, §2
# [1] = tested on: Salmonella Enteritidis AR-0496; experiment: as above; assay type: cell-based; conditions: Salmonella Enteritidis AR-0496
# From the text: as §1, §2
# E. coli K-12 = experiment: as above; assay type: cell-based; conditions: in the presence of 1 μg/mL of compound 3; E. coli K-12
# From the text: as §1, §2
# P. aeruginosa AR-0768 = experiment: as above; assay type: cell-based
# From the text: as §1
# [2] = tested on: MDR Gram-negative bacteria; experiment: MICs across a panel of MDR Gram-negative bacteria (summary statements); assay type: cell-based
# From the text: as §1
# (§3) To evaluate the mammalian toxicity of these analogs, Applicants tested them in cell viability assay using human cervical adenocarcinoma HeLa cells. Their respective half maximal growth inhibition concentration (GI50) was calculated using KaleidaGraph. The selectivity index (SI) for each compound was also calculated as the ratio of their GI50 and MRC. […] Therefore, Applicants selected two bisanilino analogs, 7l and 7m, that bear chlorines at the meta- and para-positions, respectively, of the phenyl groups for further characterization studies. […]. […] Their mammalian toxicities were also evaluated, and SIs calculated. […] Applicants we next explored the scope of analogs 71 and 7m their colistin-potentiating activity in 8 different MDR Gram negative bacteria with diverse genetic backgrounds and resistance mechanisms (Table 7). All strains were obtained from CDC and FDA Antibiotic Resistance Bank. For example, E. coli AR-0493 and K. pneumoniae AR-0497 carry the plasmid that contains the most prevalent mcr-1 gene. E. coli AR-0538, Salmonella Typhimurium AR-0539 and AR-0635 contain the mcr-2, 3, and 4 genes, respectively. These genes encode the phosphoethanolamine transferase, which was originated form the chromosome of A. baumannii, such as AR-0310. […]. A. baumannii AR-0310 appears more sensitive to these two compounds and the MICs of colistin was reduced to 0.25 μg/mL.
# as §2
# HeLa cells = experiment: in vitro; assay type: cell-based, human; conditions: GI50 in HeLa / MRC in AR-0493
# Description: (§4) These 10 compounds were tested for their MICs and minimum re-sensitizing concentrations (MRCs) in the presence colistin at 2 μg/mL in E. coli AR-0493. […] To evaluate their toxicity in mammalian cells, the present inventors treated human epithelial adenocarcinoma HeLa cells with each compound at a wide range of concentrations.
# as §3, §2
# in vitro = assay type: cell-based, human; conditions: human
# Description: as §4, §3, §2
# E. coli AR-0493 [3] = experiment: Minimum re-sensitizing concentration (MRC) in the presence of colistin; assay type: cell-based; conditions: in AR-0493
# Description: These 10 compounds were tested for their MICs and minimum re-sensitizing concentrations (MRCs) in the presence colistin at 2 μg/mL in E. coli AR-0493.
# The present inventors further conducted MRC screens of selected compounds from groups 2-5 in AR-0493. Compound were tested against AR-0493 with compound X+2 μg/mL Colistin.
# All compounds were tested for their respective minimum resensitizing concentrations (MRCs) for colistin against E. coli. AR0493, a MDR strain from CDC and FDA Antibiotic Resistance Bank. […] For the symmetrical bisanilino series, 7a-p, electron-donating alkyl and alkoxy groups (entries 7a-g, Table 5) at various positions of the phenyl rings were investigated. […] Three asymmetric bisanilino analogs (7q-s, Table 5) were synthesized based on the SARs of the monoanilino analogs 8a-p (vide infra).
# as §2
# E. coli AR-0493 [4] = experiment: Checkerboard broth microdilution assay with colistin; assay type: cell-based
# Description: FIG. 2. […] AR-0493. Data represent the mean OD (600 nm) in two biological replicates.
# To further confirm the synergistic effect of compound 3 and colistin, the checkerboard broth microdilution assay was performed (FIG. 2).
# as §2
# E. coli AR-0493 [5] = experiment: MIC, CLSI broth microdilution, substance alone; assay type: cell-based; conditions: Escherichia coli, AR0493, read-out: MIC
# Description: A MDR E. coli strain AR-0493 (a.k.a., ATCC BAA-3170) was obtained from the CDC and FDA Antibiotic Resistance Bank and used for the initial screen. […] Considering the difficulties on the discovery of novel antimicrobial reagents against Gram-negative bacteria, we chose to screen the fragment-based library of 3,200 compounds from TimTec (Tampa, FL). […] The screen used a modified broth microdilution assay.
# as §4, with “concentrations. […]” for “concentrations.”
# as §2
# E. coli AR-0493 [6] = experiment: Colistin MIC in the absence or presence of RMA compound; assay type: cell-based; conditions: E. coli AR-0493
# From the text: as §1, §3, §2
# K. pneumoniae AR-0497 = experiment: as above; assay type: cell-based; conditions: K. pneumoniae AR-0497
# From the text: as §1, §3, §2
# [7] = tested on: Salmonella Typhimurium AR-0635; experiment: as above; assay type: cell-based; conditions: Salmonella Typhimurium AR-0635
# From the text: as §1, §3, §2
# A. baumannii AR-0310 = experiment: as above; assay type: cell-based
# From the text: as §1, §3, §2
# E. coli AR-0538 = experiment: as above; assay type: cell-based; conditions: E. coli AR-0538
# From the text: as §1, §3, §2
# [8] = in the presence of 1 μg/mL of compound 3
# [9] = 1 μg/mL compound 3, almost all mcr-expressing Enterobacteriaceae strains of Table 2
compound,measurement,setting,value
Cc1cccc(Nc2nc3nonc3nc2Nc2cccc(C)c2)c1 [Compound 3],Folds of potentiation,E. coli AR-0346; 1 μg/mL of compound 3,16 folds
same,Colistin MIC (+3),E. coli AR-0346; [8],0.5 µg/mL
same,Folds of potentiation,A. baumannii AR-0300; 1 μg/mL of compound 3,32 folds
same,Colistin MIC (+3),A. baumannii AR-0300; [8],0.25 µg/mL
same,Folds of potentiation,[1]; 1 μg/mL of compound 3,16 folds
same,Colistin MIC (+3),[1]; [8],1 µg/mL
same,Colistin MIC (+3),E. coli K-12,0.25 µg/mL
same,Folds of potentiation,P. aeruginosa AR-0768; 1 μg/mL of compound 3,4 folds
same,Colistin MIC (+3),P. aeruginosa AR-0768; [8],4 µg/mL
same,Colistin MIC (+3),[2]; [9],0.5 to 1 µg/mL
same,folds of potentiation for colistin,[2]; [9],16 folds
same,MIC,"[2]; compound alone, all strains of Table 2, highest concentration tested",> 64 µg/mL
same,"SI (Selective Index), ratio of GI50 and MRC",HeLa cells,30
same,GI50 at 24 h,in vitro,15 µg/mL
same,MRC,E. coli AR-0493 [3],0.5 µg/mL
same,fractional inhibitory concentration index (FICI),"E. coli AR-0493 [4]; compound and colistin, E. coli AR-0493",< 0.06
same,potentiation of colistin in checkerboard assay,"E. coli AR-0493 [4]; mean OD (600 nm), FIG. 2",dose-dependent potentiation of colistin
same,MIC,E. coli AR-0493 [5],> 64 µg/mL
same,Folds of potentiation,E. coli AR-0493 [6]; 1 μg/mL of compound 3,16 folds
same,Colistin MIC (+3),E. coli AR-0493 [6]; [8],1 µg/mL
same,Folds of potentiation,K. pneumoniae AR-0497; 1 μg/mL of compound 3,16 folds
same,Colistin MIC (+3),K. pneumoniae AR-0497; [8],0.5 µg/mL
same,Folds of potentiation,[7]; 2 μg/mL of compound 3,16 folds
same,Colistin MIC (+3),[7]; [8],4 µg/mL
same,Colistin MIC (+3),[7]; in the presence of 2 μg/mL of compound 3,1 μg/mL and 1^c μg/mL
same,Folds of potentiation,A. baumannii AR-0310; 1 μg/mL of compound 3,32 folds
same,Colistin MIC (+3),A. baumannii AR-0310; [8],0.5 µg/mL
same,Folds of potentiation,E. coli AR-0538; 1 μg/mL of compound 3,16 folds
same,Colistin MIC (+3),E. coli AR-0538; [8],0.5 µg/mL
